The values that follow are results of earlier work, collected in patent US6346524B1, “Cancer treatment with temozolomide” (Schering Corporation, priority 1999, dated 2002).

The subject of series [1] is advanced melanoma. The following applies: patients having advanced melanoma; Newlands et al. Br. J. Cancer 65 (2) 287-291 (1992).
In series [2] the test system is advanced melanoma. The following applies: patients with advanced melanoma; Journal of Clinical Oncology, Vol 13, No. 4, 1995, pp 910-913.

With `Cn1nnc2c(C(N)=O)ncn2c1=O` [Temozolomide, 3,4-dihydro-3-methyl-4-oxoimidazo-[5,1-d] 1,2,3,4-tetrazin-8-carboximide], the “clinical responses achieved, % of patients” value with advanced melanoma [1] was 17%. The “clinical response achieved, % of patients” value in the series on advanced melanoma [2] is recorded as 21%.
